Patent publication US20020019536A1, “NEW URETHANES, THIO AND DITHIO ANALOGUES AND THEIR USE AS INHIBITORS OF CHOLESTEROL BIOSYNTHESIS” (priority 1997, published 2002)
Values after ≈ are worked out from the molar mass of the structure shown.

Columns and labels:
[1] = target: T1, 2,3-epoxysqualene-lanosterol-cyclase (Rattus norvegicus, UniProt P48450); test: In-vivo activity in the rat after oral administration: 2,3-epoxysqualene level in the liver
T1 construct: Measuring the in-vivo Activity in the Rat after Oral Administration; from tissue; host or cells: living rat; 2,3-epoxysqualene measured in the liver
T1 sequence (P48450 1-733): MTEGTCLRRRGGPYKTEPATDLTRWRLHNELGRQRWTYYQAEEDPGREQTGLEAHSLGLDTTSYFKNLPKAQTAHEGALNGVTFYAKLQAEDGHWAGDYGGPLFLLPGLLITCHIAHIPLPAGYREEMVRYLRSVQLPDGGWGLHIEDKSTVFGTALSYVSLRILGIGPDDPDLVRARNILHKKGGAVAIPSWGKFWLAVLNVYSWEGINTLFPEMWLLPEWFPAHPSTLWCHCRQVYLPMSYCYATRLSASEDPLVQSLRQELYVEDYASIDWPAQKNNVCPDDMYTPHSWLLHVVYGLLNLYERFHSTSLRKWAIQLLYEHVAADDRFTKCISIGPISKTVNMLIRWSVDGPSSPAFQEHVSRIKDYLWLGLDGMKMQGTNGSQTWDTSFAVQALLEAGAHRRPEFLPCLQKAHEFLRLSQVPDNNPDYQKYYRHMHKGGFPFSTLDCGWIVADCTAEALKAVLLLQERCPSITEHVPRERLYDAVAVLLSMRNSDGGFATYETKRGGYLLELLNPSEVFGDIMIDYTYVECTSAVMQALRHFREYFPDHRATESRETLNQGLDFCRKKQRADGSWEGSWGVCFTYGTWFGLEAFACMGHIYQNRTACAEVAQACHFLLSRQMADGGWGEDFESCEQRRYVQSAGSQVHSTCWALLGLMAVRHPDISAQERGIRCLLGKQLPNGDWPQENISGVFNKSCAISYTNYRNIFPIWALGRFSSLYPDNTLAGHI
Procedure: II. Measuring the in-vivo Activity in the Rat after Oral Administration
Inhibiting the enzyme 2,3-epoxysqualene-lanosterol-cyclase causes an increase in the 2,3-epoxisqualene levels in the liver and plasma. The quantity of 2,3-epoxysqualene formed therefore serves as a direct measurement of the potency on the animal as a whole. The amounts were determined using the method described in J. Lipid. Res. 38, 564-575, [1997] at t=3 or 8 hours after administration of the substance in concentrations of c=0.01, 0.03, 0.1, 0.3 and 1.0 mg/kg. Table 3 which follows gives the results obtained for the abovementioned substances A, B, C, E, G, H, O and R by way of example.
In the control animals there were no measurable 2,3-epoxisqualene levels under these conditions.

[2] = system: Sacch. carisbergensis ATCC 9080; test: Fungistatic activity, series dilution test; assay type: cell-based; details: Sabouraud broth, 2 to 4 days at 26° C.
Procedure: (§1) V. Determining the Fungistatic Activity
(§2) The fungistatic activity was determined by the series dilution test (microtitre system). Sabouraud broth was used as the nutrient medium. The inoculum amounted to about 10^4 to 10^5 CFU/ml (CFU=colony-forming units); the incubation period was 2 to 4 days at 26° C.
(§3) The lowest concentration which allows no visible growth (minimum inhibitory concentration MIC) was determined.
(§4) The abovementioned compounds B, E, G, I, K, L, N, Q and R were tested. The MIC is given in μg/ml.

Pen. notatum CBS 19746 = test: Fungistatic activity, series dilution test; assay type: cell-based; details: Sabouraud broth, 2 to 4 days at 26° C.
Procedure: as §1, §2, §3, §4

Asp. niger ATCC 16404 = test: Fungistatic activity, series dilution test; assay type: cell-based; details: Sabouraud broth, 2 to 4 days at 26° C.
Procedure: as §1, §2, §3, §4

[3] = system: Trich. mentagrophytes ATCC 9129; test: Fungistatic activity, series dilution test; assay type: cell-based; details: Sabouraud broth, 2 to 4 days at 26° C.
Procedure: as §1, §2, §3, §4

Rhod. rubra 49 = test: Fungistatic activity, series dilution test; assay type: cell-based; details: Sabouraud broth, 2 to 4 days at 26° C.
Procedure: as §1, §2, §3, §4

[4] = system: Cand. albicans ATCC 10231; test: Fungistatic activity, series dilution test; assay type: cell-based; details: Sabouraud broth, 2 to 4 days at 26° C.
Procedure: as §1, §2, §3, §4

[5] = system: 14C-acetate incorporation into the steroids which can be precipitated with digitonin (cholesterol biosynthesis); test: Inhibition of 14C-acetate incorporation into the steroids which can be precipitated with digitonin; assay type: cell-based
Description: I. Measuring the Inhibition of ^14C-acetate incorporation into the steroids which can be precipitated with digitonin: The inhibitory effect was investigated using the method described in J. Lipid. Res. 37, 148-157 [1996] at test concentrations of 10^−8 and 10^−9 mol/l.

[6] = Lipid reduction in the normolipaemic golden hamster; assay type: in vivo; details: compared with control group
Procedure: III. Lipid Reduction in the Normolipaemic Golden Hamster This was determined using the method described in J. Lipid. Res. 38, 564-575, (1997). At the end of the experiment the total cholesterol, β-lipoprotein-cholesterol and HDL-cholesterol were determined and compared with the values of a control group which were fed without any test substance. The lipid-lowering activity of the abovementioned compounds E, G and I was tested.

Row | Structure (SMILES) | MIC Sacc. [2] | MIC Pen. (Pen. notatum CBS 19746) | MIC Asp. (Asp. niger ATCC 16404) | MIC Trich. [3] | MIC Rhod. (Rhod. rubra 49) | MIC Cand. [4] | percentage inhibition of 14C-acetate incorporation ([5]; test concentration 10^−8 mol/l) | percentage inhibition of 14C-acetate incorporation ([5]; test concentration 10^−9 mol/l) | other results
1 | CN(C)Cc1ccc([C@H]2CC[C@H](N(C)C(=S)SCc3cccc(F)c3)CC2)cc1.Cl [B, trans-S-(3-fluorobenzyl)-N-4-[4-(dimethylaminomethyl)-phenyl]cyclohexyl-N-methyldithiocarbamate-hydrochloride] | 8 µg/mL | 2 µg/mL | 2 µg/mL | 1 µg/mL | 2 µg/mL | 2 µg/mL | −85% | −59% | 2,3-epoxysqualene concentration in the liver (rat) ([1]; 0.03 mg/kg oral, 3 h after administration): 24.5 µg/g; 2,3-epoxysqualene concentration in the liver (rat) ([1]; 0.03 mg/kg oral, 8 h after administration): 57.1 µg/g; 2,3-epoxysqualene concentration in the liver (rat) ([1]; 0.1 mg/kg oral, 3 h after administration): 96.0 µg/g; 2,3-epoxysqualene concentration in the liver (rat) ([1]; 0.1 mg/kg oral, 8 h after administration): 150.9 µg/g; 2,3-epoxysqualene concentration in the liver (rat) ([1]; 0.3 mg/kg oral, 3 h after administration): 98.5 µg/g; 2,3-epoxysqualene concentration in the liver (rat) ([1]; 0.3 mg/kg oral, 8 h after administration): 234.5 µg/g
2 | CN(C(=O)Oc1ccc(Cl)cc1)[C@H]1CC[C@H](c2ccc(CN3CCCCC3)cc2)CC1.Cl [I, trans-O-(4-chlorophenyl)-N-methyl-N-4-[4-(piperidinomethyl)phenyl]cyclohexylcarbamate-hydrochloride] | 64 µg/mL | 64 µg/mL | 256 µg/mL | 8 µg/mL | 64 µg/mL | 64 µg/mL | −83% | −43% | HDL-cholesterol ([6]; dose 0.46 mg/kg/day): −3.3%; Total cholesterol ([6]; dose 0.46 mg/kg/day): −16.1%; β-Lipoprotein-cholesterol ([6]; dose 0.46 mg/kg/day): −26.2%; HDL-cholesterol ([6]; dose 1.34 mg/kg/day): −5.0%; Total cholesterol ([6]; dose 1.34 mg/kg/day): −20.2%; β-Lipoprotein-cholesterol ([6]; dose 1.34 mg/kg/day): −33.7%; HDL-cholesterol ([6]; dose 4.89 mg/kg/day): −16.2%; Total cholesterol ([6]; dose 4.89 mg/kg/day): −25.7%; β-Lipoprotein-cholesterol ([6]; dose 4.89 mg/kg/day): −36.1%
3 | C#CCN(C)Cc1ccc([C@H]2CC[C@H](N(C)C(=O)Oc3ccc(Cl)cc3)CC2)cc1 [N, trans-O-(4-chlorophenyl)-N-methyl-N-4-[4-(N-methyl-N-propargylaminomethyl)phenyl]cyclohexylcarbamate] | 64 µg/mL (≈ 151 µM) | 8 µg/mL (≈ 18.8 µM) | >512 µg/mL | 8 µg/mL (≈ 18.8 µM) | 16 µg/mL (≈ 37.6 µM) | 8 µg/mL (≈ 18.8 µM) | −90% | −75% | 
4 | Cc1ccc(OC(=S)N(C)[C@H]2CC[C@H](c3ccc(CN4CCCCC4)cc3)CC2)cc1.Cl [Q, trans-N-Methyl-O-(4-methylphenyl)-N-4-[4-(piperidinomethyl)phenyl]cyclohexylthiocarbamate-hydrochloride] | 32 µg/mL | 64 µg/mL | 128 µg/mL | 2 µg/mL | 8 µg/mL | 16 µg/mL | −79% | −51% | 
